# Measured values from paper PMC11755407, “Advancements in drug discovery: integrating CADD tools and drug repurposing for PD-1/PD-L1 axis inhibition” (RSC Advances, 2025).
# Columns and labels:
# [1] = biological target: T1, PD-L1 (Homo sapiens, UniProt Q9NZQ7); experiment: competitive ELISA of PD-1Fc binding to immobilized PD-L1
# T1 construct: gene CD274; purified recombinant monomeric human PD-L1His (produced in plants); with PD-1 (PD-1Fc chimera)
# [2] = biological target: T1, PD-L1; experiment: competitive ELISA of PD-1Fc binding to immobilized PD-L1; also partial competition with anti-PD-L1 mAb MIH1 on MDA-MB-231 cells (flow cytometry)
# T1 sequence (Q9NZQ7 19-238 limits assumed): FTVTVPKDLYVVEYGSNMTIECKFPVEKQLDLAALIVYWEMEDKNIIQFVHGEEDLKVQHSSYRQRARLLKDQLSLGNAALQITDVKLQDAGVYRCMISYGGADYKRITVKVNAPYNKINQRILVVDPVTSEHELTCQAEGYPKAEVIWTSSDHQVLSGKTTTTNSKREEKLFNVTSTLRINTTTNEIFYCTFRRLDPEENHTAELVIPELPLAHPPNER
# T1 sequence (Q15116 25-288 partner): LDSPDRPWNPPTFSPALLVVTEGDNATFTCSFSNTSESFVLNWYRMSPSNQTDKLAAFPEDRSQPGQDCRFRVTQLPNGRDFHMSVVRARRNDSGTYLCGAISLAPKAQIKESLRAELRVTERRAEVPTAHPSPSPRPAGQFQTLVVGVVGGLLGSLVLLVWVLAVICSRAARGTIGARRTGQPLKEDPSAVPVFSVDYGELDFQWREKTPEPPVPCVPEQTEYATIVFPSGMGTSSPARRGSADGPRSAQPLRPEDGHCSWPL
Compound,IC50 [1],IC50 [2]
"Cc1c(C(=O)Nc2ccc(N3C[C@@H](C)O[C@@H](C)C3)nc2)cccc1-c1ccc(OC(F)(F)F)cc1 [compound 28, sonidegib]",481 µM,
PDI-1,,5.52 µM
